Laboratory results published in ChEMBL document CHEMBL1201862, “PubChem BioAssay data set” (2004).
Counter-ions that a name gives are not always drawn. Blank lines part the entries; values can stand above or below the molecule they belong to. Calls of active or inactive are those of the source.

Assays:
[1] = molecular target: Lysosomal acid glucosylceramidase (Homo sapiens, UniProt P04062); assay: Dose response cell-based high throughput screening assay to identify enhancers of beta-glucosidase activity. [Related pubchem assays: 784 ]; assay type: functional
[2] = molecular target: Ion channel NompC (Danio rerio, UniProt Q7T1G6); assay: Fluorescence counterscreen assay for TRPML3 agonists: dose response cell-based high-throughput screening assay to identify agonists of the transient receptor potential channel N1 (TRPN1). [Related pubchem assays: 1526, 1424, 1448 ]; assay type: functional
[3] = molecular target: T1, Mucolipin-3 (Homo sapiens, UniProt Q8TDD5); assay: Dose response cell-based high-throughput screening assay for agonists of the transient receptor potential channel ML3 (TRPML3). [Related pubchem assays: 1526, 1424, 1448 ]; assay type: functional
T1 sequence (Q8TDD5 whole entry): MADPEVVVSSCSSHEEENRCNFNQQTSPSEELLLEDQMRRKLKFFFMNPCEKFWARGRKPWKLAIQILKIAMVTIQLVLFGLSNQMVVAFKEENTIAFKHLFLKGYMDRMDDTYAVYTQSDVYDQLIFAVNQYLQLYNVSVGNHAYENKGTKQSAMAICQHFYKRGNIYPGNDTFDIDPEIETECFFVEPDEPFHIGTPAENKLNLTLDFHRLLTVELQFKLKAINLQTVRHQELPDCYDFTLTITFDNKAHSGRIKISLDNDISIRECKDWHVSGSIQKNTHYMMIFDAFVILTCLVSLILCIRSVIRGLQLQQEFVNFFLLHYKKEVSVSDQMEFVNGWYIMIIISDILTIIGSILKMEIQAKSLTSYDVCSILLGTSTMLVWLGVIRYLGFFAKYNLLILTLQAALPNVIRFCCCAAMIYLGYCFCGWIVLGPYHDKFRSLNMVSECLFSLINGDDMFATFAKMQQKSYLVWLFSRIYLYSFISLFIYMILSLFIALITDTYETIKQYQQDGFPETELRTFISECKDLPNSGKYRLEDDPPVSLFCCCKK

[4] = molecular target: Luciferin 4-monooxygenase (Photinus pyralis, UniProt P08659); assay: Counter Screen for Luciferase-based Assay Positives. [Related pubchem assays: 620, 618, 411 ]
[5] = molecular target: T2, Aspartyl aminopeptidase (Plasmodium falciparum 3D7, UniProt Q8I2J3)
T2 sequence (Q8I2J3 whole entry): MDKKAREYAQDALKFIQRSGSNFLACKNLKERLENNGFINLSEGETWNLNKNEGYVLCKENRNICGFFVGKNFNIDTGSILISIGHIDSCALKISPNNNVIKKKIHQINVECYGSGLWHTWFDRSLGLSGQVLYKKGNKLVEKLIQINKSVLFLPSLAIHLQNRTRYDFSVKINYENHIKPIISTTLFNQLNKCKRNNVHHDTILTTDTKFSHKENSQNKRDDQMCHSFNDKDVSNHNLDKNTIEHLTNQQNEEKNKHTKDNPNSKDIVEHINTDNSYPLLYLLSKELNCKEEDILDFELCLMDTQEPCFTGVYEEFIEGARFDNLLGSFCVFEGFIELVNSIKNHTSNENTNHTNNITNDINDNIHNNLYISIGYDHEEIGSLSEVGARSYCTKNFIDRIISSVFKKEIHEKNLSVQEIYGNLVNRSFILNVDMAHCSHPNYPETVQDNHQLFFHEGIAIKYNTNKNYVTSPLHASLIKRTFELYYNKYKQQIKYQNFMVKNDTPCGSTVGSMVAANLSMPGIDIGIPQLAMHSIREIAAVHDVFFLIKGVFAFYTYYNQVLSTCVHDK

[6] = molecular target: Procathepsin L (Homo sapiens, UniProt P07711)
[7] = molecular target: Voltage-gated inwardly rectifying potassium channel KCNH2 (Homo sapiens, UniProt Q12809); conditions: Potency;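 further: confirmatory quantitative high-throughput screen measuring inhibition of hERG channel activity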
[8] = tested on: HT-1080; assay: cytotoxicity in HT1080 fibrosarcoma cells, cell-based, fluorescence readout (AID 620); assay type: functional; conditions: Homo sapiens
[9] = molecular target: Glyceraldehyde-3-phosphate dehydrogenase (Homo sapiens, UniProt P04406)
[10] = molecular target: T3, Short transient receptor potential channel 4 (Mus musculus, UniProt Q9QUQ5); assay: mouse TRPC4 channel inhibitors, dose response, cell-based, HEK293 TRPC4/mu-opioid, Fluo-4 calcium (AID 434942); assay type: functional;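 further: potency of inhibitors blocking the TRPC4 calcium response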
T3 sequence (Q9QUQ5 whole entry): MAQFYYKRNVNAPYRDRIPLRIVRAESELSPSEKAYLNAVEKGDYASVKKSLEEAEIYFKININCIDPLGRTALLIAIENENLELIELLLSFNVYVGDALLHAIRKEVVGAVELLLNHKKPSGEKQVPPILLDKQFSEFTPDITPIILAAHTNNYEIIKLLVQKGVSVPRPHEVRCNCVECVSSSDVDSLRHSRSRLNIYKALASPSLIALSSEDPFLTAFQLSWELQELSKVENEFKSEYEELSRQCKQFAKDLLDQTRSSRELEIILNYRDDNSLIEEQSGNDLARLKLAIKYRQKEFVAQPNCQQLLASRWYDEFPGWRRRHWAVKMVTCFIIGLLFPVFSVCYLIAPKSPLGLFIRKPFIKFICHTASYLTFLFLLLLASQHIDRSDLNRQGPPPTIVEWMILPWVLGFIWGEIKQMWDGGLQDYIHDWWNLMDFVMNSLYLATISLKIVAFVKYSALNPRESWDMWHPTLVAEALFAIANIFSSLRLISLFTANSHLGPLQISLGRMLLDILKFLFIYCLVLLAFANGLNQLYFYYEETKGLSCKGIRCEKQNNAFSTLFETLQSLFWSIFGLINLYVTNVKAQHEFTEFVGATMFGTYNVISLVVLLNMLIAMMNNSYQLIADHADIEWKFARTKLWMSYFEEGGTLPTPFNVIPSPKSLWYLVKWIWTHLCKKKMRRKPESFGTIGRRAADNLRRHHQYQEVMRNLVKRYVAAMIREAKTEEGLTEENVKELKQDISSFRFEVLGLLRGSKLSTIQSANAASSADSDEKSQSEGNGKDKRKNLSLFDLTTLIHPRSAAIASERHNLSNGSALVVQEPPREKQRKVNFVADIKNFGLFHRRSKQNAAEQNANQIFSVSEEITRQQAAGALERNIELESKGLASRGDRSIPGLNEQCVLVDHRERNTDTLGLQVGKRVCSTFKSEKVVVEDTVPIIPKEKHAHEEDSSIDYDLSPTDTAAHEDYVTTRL

[11] = molecular target: T4, Neuropeptide Y receptor type 1 (Homo sapiens, UniProt P25929); assay type: functional;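 further: HEK293 cells with a CNG channel challenged with NPY then isoproterenol; potency as antagonist that reverses NPY suppression of cAMP signal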
T4 sequence (P25929 whole entry): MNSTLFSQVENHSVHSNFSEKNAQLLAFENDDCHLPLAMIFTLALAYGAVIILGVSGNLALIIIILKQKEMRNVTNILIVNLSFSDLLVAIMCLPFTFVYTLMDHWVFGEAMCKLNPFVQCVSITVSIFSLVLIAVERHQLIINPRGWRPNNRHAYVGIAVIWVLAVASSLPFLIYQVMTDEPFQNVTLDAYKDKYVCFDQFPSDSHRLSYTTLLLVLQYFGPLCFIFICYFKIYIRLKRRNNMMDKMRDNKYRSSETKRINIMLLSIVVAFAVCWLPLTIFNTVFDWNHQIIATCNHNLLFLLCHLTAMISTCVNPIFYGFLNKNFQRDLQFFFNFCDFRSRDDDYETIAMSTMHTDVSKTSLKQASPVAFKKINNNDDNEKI

[12] = molecular target: T5, Neuropeptide Y receptor type 2 (Homo sapiens, UniProt P49146); assay type: functional, cell-based;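 further: HEK293 cells expressing the receptor and a CNG channel; stimulus was NPY near EC95 followed by isoproterenol to raise cAMP; antagonist potency measured as restoring cAMP signal that NPY suppresses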
T5 sequence (P49146 whole entry): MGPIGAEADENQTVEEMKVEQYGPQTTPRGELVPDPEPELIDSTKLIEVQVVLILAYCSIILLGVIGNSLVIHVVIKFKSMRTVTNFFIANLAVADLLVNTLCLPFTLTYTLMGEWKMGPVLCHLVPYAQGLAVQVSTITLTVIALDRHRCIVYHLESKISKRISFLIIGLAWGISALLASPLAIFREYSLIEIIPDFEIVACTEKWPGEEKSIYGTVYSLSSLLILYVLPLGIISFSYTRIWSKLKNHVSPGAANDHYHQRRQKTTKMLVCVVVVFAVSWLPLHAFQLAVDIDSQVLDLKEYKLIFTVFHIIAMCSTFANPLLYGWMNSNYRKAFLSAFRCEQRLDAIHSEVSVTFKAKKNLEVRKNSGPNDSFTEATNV

[13] = molecular target: T6, Histone-lysine N-methyltransferase NSD2 (Homo sapiens, UniProt O96028); assay type: biochemical
T6 sequence (O96028 whole entry): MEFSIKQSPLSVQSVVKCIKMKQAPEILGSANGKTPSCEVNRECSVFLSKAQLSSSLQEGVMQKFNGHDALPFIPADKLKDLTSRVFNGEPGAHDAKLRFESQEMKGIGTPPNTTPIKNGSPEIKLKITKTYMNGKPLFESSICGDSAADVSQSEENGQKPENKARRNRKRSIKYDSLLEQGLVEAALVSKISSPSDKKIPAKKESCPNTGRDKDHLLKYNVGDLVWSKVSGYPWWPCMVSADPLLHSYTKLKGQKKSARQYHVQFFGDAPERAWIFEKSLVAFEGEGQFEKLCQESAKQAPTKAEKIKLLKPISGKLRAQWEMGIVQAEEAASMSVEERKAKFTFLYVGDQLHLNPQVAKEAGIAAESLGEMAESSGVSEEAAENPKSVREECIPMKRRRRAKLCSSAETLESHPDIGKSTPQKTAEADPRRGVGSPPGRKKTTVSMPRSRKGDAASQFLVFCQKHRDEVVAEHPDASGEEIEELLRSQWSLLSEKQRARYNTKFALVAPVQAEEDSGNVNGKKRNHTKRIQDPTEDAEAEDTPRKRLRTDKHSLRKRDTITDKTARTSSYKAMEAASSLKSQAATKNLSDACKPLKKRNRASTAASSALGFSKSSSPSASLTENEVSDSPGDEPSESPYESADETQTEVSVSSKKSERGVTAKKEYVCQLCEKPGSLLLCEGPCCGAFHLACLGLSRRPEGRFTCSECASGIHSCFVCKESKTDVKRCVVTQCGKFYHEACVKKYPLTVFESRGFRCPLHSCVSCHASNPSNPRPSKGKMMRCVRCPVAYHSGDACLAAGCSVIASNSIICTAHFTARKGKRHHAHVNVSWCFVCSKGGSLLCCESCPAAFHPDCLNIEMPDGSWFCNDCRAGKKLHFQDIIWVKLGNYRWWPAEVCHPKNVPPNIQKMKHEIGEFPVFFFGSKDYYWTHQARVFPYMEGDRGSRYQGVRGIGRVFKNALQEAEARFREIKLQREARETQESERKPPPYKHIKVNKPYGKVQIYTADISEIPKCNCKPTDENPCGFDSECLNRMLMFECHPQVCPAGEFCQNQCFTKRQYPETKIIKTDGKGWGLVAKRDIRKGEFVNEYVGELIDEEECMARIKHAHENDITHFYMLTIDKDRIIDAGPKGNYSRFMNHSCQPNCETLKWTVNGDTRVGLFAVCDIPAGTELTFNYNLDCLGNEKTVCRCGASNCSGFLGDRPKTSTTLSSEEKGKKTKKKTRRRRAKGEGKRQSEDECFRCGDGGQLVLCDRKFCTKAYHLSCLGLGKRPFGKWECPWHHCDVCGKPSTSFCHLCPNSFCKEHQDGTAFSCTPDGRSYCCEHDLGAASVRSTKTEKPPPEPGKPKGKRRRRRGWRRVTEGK

[14] = molecular target: Albumin (Bos taurus, UniProt P02769); assay: Counterscreen for inhibitors of T-cell receptor (TCR)-CD3 interaction: Fluorescence-based biochemical high throughput dose response assay to identify inhibitors of T-cell receptor (TCR)-CD3 interaction using a TAMRA-labeled BSA probe.; assay type: functional
[15] = molecular target: T7, Rac GTPase-activating protein 1 (Homo sapiens, UniProt Q9H0H5); assay: MgcRacGAP GTPase-activating activity inhibitors, confirmation, biochemical, ADP Hunter fluorescence, primary and confirmatory (AID 624330); assay type: functional
T7 sequence (Q9H0H5 whole entry): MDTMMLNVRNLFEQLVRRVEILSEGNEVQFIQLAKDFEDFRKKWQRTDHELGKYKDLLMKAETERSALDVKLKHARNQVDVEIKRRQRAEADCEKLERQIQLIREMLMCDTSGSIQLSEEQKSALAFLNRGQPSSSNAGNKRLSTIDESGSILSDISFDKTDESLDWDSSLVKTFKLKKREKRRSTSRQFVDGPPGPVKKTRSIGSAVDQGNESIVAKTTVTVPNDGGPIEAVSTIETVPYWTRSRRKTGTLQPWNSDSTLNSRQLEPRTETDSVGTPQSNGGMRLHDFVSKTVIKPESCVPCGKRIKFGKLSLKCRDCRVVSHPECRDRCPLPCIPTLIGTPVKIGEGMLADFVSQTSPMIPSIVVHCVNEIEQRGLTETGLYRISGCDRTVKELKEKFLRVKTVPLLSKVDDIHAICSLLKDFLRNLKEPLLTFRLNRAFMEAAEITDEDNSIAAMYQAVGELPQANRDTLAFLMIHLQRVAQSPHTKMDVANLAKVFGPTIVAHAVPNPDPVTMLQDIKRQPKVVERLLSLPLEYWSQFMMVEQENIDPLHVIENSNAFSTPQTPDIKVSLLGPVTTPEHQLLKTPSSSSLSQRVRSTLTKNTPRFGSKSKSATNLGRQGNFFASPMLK

Luciferin 4-monooxygenase, sequence (P08659 whole entry): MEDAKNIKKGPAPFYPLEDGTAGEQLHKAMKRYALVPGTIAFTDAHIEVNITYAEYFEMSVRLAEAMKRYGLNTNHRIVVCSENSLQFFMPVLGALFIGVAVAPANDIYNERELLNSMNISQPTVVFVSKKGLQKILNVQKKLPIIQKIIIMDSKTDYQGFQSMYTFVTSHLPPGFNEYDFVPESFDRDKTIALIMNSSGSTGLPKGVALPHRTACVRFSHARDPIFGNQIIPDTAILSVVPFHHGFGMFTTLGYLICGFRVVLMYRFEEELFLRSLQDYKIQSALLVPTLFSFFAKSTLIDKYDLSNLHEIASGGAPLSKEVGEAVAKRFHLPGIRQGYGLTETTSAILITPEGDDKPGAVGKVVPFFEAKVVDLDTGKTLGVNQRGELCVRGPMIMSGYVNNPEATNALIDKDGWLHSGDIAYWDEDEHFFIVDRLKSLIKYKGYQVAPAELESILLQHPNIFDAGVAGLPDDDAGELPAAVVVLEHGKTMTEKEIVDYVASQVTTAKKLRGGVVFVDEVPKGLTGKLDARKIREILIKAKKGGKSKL
Ion channel NompC, sequence (Q7T1G6 whole entry): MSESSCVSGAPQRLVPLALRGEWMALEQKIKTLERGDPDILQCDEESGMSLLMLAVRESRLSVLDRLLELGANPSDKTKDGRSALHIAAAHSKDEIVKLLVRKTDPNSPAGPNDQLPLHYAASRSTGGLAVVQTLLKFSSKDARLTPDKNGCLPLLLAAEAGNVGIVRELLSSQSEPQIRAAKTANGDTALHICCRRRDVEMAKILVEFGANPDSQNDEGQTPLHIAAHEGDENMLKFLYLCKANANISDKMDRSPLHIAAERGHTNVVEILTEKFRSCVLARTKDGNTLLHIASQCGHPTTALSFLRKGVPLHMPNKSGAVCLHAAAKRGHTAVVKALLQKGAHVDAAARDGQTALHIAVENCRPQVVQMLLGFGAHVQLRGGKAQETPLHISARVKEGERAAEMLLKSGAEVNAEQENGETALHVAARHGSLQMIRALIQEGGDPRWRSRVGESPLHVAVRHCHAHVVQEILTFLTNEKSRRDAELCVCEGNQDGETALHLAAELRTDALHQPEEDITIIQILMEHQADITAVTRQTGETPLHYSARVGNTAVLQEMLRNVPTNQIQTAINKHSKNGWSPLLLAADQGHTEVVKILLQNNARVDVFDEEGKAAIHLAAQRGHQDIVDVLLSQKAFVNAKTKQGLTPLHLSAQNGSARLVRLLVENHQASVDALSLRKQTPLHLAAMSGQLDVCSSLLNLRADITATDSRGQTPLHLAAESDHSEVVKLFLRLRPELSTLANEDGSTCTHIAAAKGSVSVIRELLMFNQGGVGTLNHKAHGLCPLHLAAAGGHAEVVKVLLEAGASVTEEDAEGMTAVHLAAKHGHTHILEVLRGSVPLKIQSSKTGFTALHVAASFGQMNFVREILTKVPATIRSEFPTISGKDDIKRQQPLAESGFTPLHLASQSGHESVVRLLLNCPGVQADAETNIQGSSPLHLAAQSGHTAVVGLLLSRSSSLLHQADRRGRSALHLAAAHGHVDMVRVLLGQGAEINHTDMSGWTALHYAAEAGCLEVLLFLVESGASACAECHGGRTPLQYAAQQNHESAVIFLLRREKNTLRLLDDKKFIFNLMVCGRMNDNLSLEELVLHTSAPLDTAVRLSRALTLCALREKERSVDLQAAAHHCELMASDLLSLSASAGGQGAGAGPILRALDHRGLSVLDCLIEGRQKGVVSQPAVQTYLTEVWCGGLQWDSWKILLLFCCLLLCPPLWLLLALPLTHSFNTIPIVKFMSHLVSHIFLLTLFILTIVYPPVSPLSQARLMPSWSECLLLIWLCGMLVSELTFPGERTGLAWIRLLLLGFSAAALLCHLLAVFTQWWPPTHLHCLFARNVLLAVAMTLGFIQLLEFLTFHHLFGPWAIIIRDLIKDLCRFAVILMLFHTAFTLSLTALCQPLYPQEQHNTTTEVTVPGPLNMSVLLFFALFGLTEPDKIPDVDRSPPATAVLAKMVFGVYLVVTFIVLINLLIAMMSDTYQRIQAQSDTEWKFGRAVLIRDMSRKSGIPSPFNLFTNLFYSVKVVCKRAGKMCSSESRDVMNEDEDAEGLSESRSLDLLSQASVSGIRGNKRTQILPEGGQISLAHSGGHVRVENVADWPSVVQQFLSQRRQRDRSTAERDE
Procathepsin L, sequence (P07711 whole entry): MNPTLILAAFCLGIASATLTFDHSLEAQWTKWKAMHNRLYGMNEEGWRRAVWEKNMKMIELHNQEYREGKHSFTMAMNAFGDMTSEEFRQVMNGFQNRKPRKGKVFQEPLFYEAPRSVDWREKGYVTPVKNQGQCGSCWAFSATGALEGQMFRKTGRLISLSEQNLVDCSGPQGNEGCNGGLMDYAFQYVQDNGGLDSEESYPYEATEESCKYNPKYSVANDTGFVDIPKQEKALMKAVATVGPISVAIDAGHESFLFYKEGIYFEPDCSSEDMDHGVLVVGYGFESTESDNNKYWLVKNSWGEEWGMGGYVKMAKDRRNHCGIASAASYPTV
Albumin, sequence (P02769 whole entry): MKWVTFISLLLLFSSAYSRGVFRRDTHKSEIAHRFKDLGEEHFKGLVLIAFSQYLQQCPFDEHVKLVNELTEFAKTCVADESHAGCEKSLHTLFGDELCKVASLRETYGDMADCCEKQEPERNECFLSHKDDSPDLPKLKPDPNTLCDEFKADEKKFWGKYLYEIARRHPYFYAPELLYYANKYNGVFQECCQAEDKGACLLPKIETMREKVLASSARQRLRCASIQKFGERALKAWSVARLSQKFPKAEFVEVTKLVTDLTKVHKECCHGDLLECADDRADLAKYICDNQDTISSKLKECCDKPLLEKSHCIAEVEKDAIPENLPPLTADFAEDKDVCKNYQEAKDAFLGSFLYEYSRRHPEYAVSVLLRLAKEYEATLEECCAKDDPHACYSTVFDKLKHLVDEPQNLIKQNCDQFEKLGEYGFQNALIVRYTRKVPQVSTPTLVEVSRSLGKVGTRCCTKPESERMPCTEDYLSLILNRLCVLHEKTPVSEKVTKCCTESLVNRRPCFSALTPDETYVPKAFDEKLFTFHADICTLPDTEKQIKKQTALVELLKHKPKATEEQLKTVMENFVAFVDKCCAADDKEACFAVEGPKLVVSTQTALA
Voltage-gated inwardly rectifying potassium channel KCNH2, sequence (Q12809 whole entry): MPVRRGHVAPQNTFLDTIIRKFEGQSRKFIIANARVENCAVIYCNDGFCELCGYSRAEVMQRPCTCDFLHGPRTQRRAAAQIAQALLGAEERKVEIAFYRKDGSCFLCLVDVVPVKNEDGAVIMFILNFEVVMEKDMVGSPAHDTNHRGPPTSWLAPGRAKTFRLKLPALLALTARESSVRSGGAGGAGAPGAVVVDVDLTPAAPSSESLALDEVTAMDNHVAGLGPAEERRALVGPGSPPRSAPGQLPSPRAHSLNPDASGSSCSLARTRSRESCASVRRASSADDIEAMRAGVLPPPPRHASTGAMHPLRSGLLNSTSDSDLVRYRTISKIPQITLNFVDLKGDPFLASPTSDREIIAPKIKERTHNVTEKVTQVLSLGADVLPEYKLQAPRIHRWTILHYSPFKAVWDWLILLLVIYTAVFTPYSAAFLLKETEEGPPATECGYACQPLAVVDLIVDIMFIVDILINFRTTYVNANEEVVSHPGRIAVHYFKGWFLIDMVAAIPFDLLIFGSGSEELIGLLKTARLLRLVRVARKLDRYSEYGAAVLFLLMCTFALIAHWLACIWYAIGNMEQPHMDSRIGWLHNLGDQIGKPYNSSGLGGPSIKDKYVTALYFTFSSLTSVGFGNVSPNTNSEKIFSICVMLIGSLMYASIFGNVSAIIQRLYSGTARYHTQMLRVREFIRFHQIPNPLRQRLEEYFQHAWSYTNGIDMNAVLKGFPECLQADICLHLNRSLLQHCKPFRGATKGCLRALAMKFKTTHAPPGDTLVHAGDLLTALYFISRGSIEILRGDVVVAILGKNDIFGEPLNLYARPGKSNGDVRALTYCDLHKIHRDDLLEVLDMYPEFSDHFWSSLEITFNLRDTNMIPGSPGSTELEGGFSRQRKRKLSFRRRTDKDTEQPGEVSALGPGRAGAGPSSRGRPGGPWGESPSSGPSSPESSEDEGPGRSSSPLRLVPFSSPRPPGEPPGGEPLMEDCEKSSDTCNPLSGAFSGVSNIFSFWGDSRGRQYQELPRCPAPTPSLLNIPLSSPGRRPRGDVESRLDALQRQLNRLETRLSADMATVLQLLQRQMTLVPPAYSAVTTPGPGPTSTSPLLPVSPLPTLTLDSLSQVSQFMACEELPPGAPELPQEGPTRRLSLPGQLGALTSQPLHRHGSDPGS
Lysosomal acid glucosylceramidase, sequence (P04062 whole entry): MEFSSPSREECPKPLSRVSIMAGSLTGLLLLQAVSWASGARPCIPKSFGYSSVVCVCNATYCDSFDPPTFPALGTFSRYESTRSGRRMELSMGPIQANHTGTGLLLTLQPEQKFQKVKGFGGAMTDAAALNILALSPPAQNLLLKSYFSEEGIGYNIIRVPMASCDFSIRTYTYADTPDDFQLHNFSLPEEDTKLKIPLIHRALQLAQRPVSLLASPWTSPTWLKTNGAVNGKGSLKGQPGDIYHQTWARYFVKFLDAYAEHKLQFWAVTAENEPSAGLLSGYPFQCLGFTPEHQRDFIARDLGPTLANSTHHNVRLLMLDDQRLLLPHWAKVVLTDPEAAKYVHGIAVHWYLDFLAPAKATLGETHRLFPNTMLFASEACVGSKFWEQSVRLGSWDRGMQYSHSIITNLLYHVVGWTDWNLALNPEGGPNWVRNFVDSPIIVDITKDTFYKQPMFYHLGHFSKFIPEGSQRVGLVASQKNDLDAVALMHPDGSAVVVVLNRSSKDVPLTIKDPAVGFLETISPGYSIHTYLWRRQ

SMILES: Cc1ccn2cc(C(=O)Nc3ccccc3N3CCOCC3)nc2c1
EC50 [1]: > 50 µM (not active)

SMILES: Cc1ccc(N=C2CCc3ccccc3N2)cc1
EC50 [4]: 80.9 µM (active)

SMILES: CC(C)(C)[C@]1(O)CCN2C[C@H]3c4ccccc4CCc4cccc(c43)[C@@H]2C1 [BUTACLAMOL HYDROCHLORIDE]
EC50 [2]: > 29.9 µM (not active)
EC50 [3]: 3.98 µM (active)
AC50 [7]: 6.31 µM (active)

SMILES: Cc1cc(C)c(C)c(S(=O)(=O)Nc2ccccc2C(=O)NCCCn2ccnc2)c1C
EC50 [4]: 61.1 µM (active)
EC50 [8]: > 50 µM (not active)
IC50 [9]: > 100 µM (not active)

SMILES: COc1ccc2nc(C)cc(SCC(=O)N/N=C/c3ccc(O)c(O)c3)c2c1
IC50 [5]: 2.48 µM (active)
AC50 [13]: > 20 µM (inactive)
IC50 [14]: > 94.1 µM (inactive)
IC50 [6]: > 59.6 µM (not active)
IC50 [15]: 23.9 µM (active)

Further lines, results first:

EC50 [2]: > 29.9 µM (not active)
EC50 [3]: 2.67 µM (active)
SMILES: COc1ccc(S(=O)(=O)N2CCCCCC2)cc1Br

IC50 [5]: 2.37 µM (active)
IC50 [6]: > 59.6 µM (not active)
SMILES: COC(=O)c1cc(C(=O)Nn2cnnc2)cc([N+](=O)[O-])c1

EC50 [10]: 1.19 µM (active)
IC50 [11]: 11.8 µM (not active)
IC50 [12]: > 35 µM (not active)
SMILES: C=CCNc1nc(N2CCCC2)nc2ccccc12
